Reference: US5639906A, “Fluorescent and NMR sensitive pH indicators” (The United States of America as represented by the …, priority 1994, dated 1997)
“Also recorded” adds a separate entry of the source.

Key:
[1] = 19F NMR pH titration of fluorinated indicators; format: physicochemical; conditions: for pK (theoretical titration curve, FIG. 2): 19F shift as a function of pH; for δ1 (limiting 19F shift difference of theoretical curve, FIG. 2) / δ2 (limiting 19F shift difference of theoretical curve, FIG. 2): shift difference between the two fluorine resonances
Text: The sample also contained Sodium Flouride as an internal chemical shift standard.
The shift for 5F NEAP-1 is referenced to the tetrafluorophthalate ^19 F resonance, while the data for 5F NEAP-2 and 5F NEAP-3 correspond to the shift differences between the two fluorine resonances. The theoretical curves correspond to: δ1 =35.6 ppm, δ2 24.7 ppm, pK=6.85 for 5F NEAP-1; δ1 =10.3 ppm, δ2 =-0.8 ppm, pK=6.6 for 5F NEAP-2; and δ1 =24.1, δ2 =13.4, pK=6.8 for 5F NEAP-3.
The magnitude of this shift, however, is insignificant in comparison to the 11 ppm titration shift of the indicator. In any event, the magnitude of this shift may be determined and corrected. In alternate embodiments, for an indicator such as NEAP-3 which contain a second fluorine to serve as a chemical shift reference both fluorines will experience a similar intracellular shift, making correction unnecessary. There is also exchange broadening of the resonance, which becomes more significant at higher magnetic field strengths. In general, the degree of broadening depends on the dissociation rate constant of the proton from the indicator. This rate is dependent on the particular indicator, on the temperature, and on the composition of the solution in which the indicator is placed. […] If the exchange is sufficiently rapid on the NMR time scale, i.e., the dissociation rate constant of the protonated indicator k-1 >>πΔv/√ 2, where Δv is the chemical shift difference of the resonance under study between the protonated and unprotonated forms of the indicator, then the observed chemical shift can be used to determine the intracellular pH according to the relation: [formula] where pK is the pK of the indicator, δo is the observed chemical shift, and δU and δP are the shifts of the unprotonated and fully protonated forms of the indicator, respectively. Although the above equation is expected to be generally adequate, at very high fields and low temperatures, the exchange might become slow enough to require a correction, as described, for example, in London, J. Magn. Reson. Series A 104, 190-196 (1993).

[2] = test system: human erythrocytes; assay: pH measurement in human erythrocytes using 19F-NMR; format: cell-based
Method: (§1) FIGS. 3A and 3B show the ^19 F NMR spectra of human erythrocytes loaded with 5F NEAP-1 acetoxymethyl ester suspended in a solution containing 120 mM sodium chloride (NaCl) and 20 mM tris-[N-(2-hydroxyethyl)piperazine-N'-(2-ethanesulfonic acid)] ("tris-HEPES"). Tetrafluorophthalate ("TFPH") is also included as a chemical shift standard. […] The resonance associated with intracellular NEAP is denoted as "INTRA"; the resonance associated with extracellular NEAP is denoted as "EXTRA".
According to the present invention, intracellular pH can be determined using ^19 F NMR spectroscopy of cells containing a compound of Formula I or II. Measurements have been carried out on several physiological systems of interest, including, for example, human erythrocytes and perfused rat heart. The ^19 F NMR shifts of 5F NEAP-1, 5F NEAP-2, or 5F NEAP-3 provide information which is directly interpretable in terms of the cytosolic pH. These measurements can be made using any standard pulsed NMR spectrometer equipped with a fluorine NMR probe. Typically, at least 100 transients are required for the measurements.
III. pH Measurement in Human Erythrocytes Using ^19 F-NMR
(§2) As an illustration of the use of the current invention, the fluorinated indicator 5F NEAP-1 is used to determine the intra- and extracellular pH in a suspension of human erythrocytes. […] Based on the chemical shift difference between the NEAP fluorine resonance and the standard, an intracellular pH value of 7.3 for this preparation is determined. Subsequently, some additional 5F NEAP-1 was added as the free acid. […] It is interesting to note that the extracellular resonance is somewhat broader than the intracellular resonance. […] An extracellular pH value of 7.0 is determined from the shift (this situation is somewhat unusual since in more typical physiological preparations the intracellular pH is lower than the extracellular pH). As noted in the above sections, small errors which result from the intracellular shift displacement of 0.1-0.3 ppm, can be, but have not been accounted for. […]

[3] = test system: human erythrocytes; assay: Membrane crossing of extracellular indicator in human erythrocyte suspension (19F NMR); format: in vitro ADME; conditions: free acid added extracellularly
Method: as §1, §2

[4] = referenced to the tetrafluorophthalate 19F resonance

Structure (SMILES) | downfield 19F shift of the para-fluorine upon protonation of the nitrogen (titration shift) [1] | pK (theoretical titration curve, FIG. 2) [1] | pK ([1]; as stated in summary) | δ1 (limiting 19F shift of theoretical curve, FIG. 2) [1, 4] | δ2 (limiting 19F shift of theoretical curve, FIG. 2) [1, 4] | extracellular pH determined with indicator ([2]; free acid added to suspension, TFPH standard) | difference between intra- and extracellular pH giving well resolved NMR resonances ([2]; intracellular vs extracellular resonance) | intracellular pH determined with indicator ([2]; loaded 1 hour with acetoxymethyl ester, 120 mM NaCl, 20 mM tris-HEPES, TFPH standard) | crossing of the cell membrane [3] | δ1 (limiting 19F shift difference of theoretical curve, FIG. 2) [1] | δ2 (limiting 19F shift difference of theoretical curve, FIG. 2) [1] | pH sensitivity of the fluorine resonances ([1]; FIG. 1) | δ1 (limiting 19F shift difference of theoretical curve, FIG. 2) ([1]; unit not given) | δ2 (limiting 19F shift difference of theoretical curve, FIG. 2) ([1]; unit not given)
CCN(CC(=O)O)c1ccc(F)cc1OCC(=O)O [5F NEAP-1, N-ethyl-2-amino-5-fluorophenol-N,O-diacetic acid] | about 11 ppm | 6.85 | 6.8 | 35.6 ppm | 24.7 ppm | 7.0 | 0.3 pH unit | 7.3 | will not readily cross the cell membrane; also recorded: does not cross the cellular membrane in appreciable amounts | – | – | – | – | –
CCN(CC(=O)O)c1ccc(F)cc1OCc1ccc(C(=O)O)cc1F [5F NEAP-2, N-Ethyl-2-(2-fluoro-4-carboxybenzyloxy)-4-fluoroaniline-N-acetic acid] | – | 6.6 | – | – | – | – | – | – | – | 10.3 ppm | -0.8 ppm | – | – | –
CCN(CC(=O)O)c1ccc(F)cc1OCCOc1ccc(N(CC(=O)O)CC(=O)O)cc1F [5F NEAP-3, 1-(N-Ethylamino-5-fluorophenoxy)-2-(2-fluoro-4-aminophenoxy)ethane, N,N',N'-triacetic acid] | – | 6.8 | – | – | – | – | – | – | – | – | – | one of the fluorine resonances is pH sensitive, and the second is almost completely pH insensitive | 24.1 | 13.4
